Each structure is given as a SMILES string.

Test [1] has as its target G. stearothermophilus glyceraldehyde-3-phosphate dehydrogenase (GsGap) mutant mGapDH (mGap, gapDH M6), D34A/L35R/T36K relative to SEQ ID NO:6 (Geobacillus stearothermophilus, UniProt P00362, D34A/L35R/T36K). Briefly: Kinetics and cofactor specificity of triple mutant mGap (mGapDH). The class given is biochemical, G. stearothermophilus ATCC12980. The settings on record: 50 mM tris pH 7.5, 340 nm. On the procedure:
Enzyme activity and optimization. All of the enzymes used in this work were assayed. The enzymes were assayed in 50 mM tris buffer pH 7.5, 5 mM MgCl, and 5 mM KCl which mirrors the final reaction conditions. The activity of NAD(P)H producing or consuming reactions were monitored at 340 nm. The activity of ATP consuming enzymes were monitored using a coupled assay with Zwf and NADP^+ at 340 nm.
To implement the “molecular rheostat” module, GapDH enzyme was engineered that efficiently uses NADP^+. […] Although the cofactor specificity of GsGap has adjusted before by sequence-based design, the mutant only slightly preferred NADP^+ over NAD^+. To more strongly flip the cofactor specificity of GsGap the crystal structure was examined and basic residues introduced into the loop region proximate to the 2′OH of NAD′ that may help stabilize binding of a 2′ phosphate in NADP^+. A series of mutations were made altering residues D34, L35, and T36 of SEQ ID NO:6. The kinetics and specificity of the best enzyme, a D34A/L35R/T36K triple mutant (herein referred to as mGap), were obtained.

Test [2] addresses G. stearothermophilus glyceraldehyde-3-phosphate dehydrogenase (GsGap, gapDH WT), wild type, SEQ ID NO:6 (Geobacillus stearothermophilus, UniProt P00362). Briefly: Kinetics and cofactor specificity of wild type GsGap (gapDH WT). To be noted: cofactor, 50 mM tris pH 7.5, 340 nm.

G. stearothermophilus glyceraldehyde-3-phosphate dehydrogenase (GsGap) mutant mGapDH (mGap, gapDH M6), D34A/L35R/T36K relative to SEQ ID NO:6, sequence (P00362 whole entry D34A/L35R/T36K): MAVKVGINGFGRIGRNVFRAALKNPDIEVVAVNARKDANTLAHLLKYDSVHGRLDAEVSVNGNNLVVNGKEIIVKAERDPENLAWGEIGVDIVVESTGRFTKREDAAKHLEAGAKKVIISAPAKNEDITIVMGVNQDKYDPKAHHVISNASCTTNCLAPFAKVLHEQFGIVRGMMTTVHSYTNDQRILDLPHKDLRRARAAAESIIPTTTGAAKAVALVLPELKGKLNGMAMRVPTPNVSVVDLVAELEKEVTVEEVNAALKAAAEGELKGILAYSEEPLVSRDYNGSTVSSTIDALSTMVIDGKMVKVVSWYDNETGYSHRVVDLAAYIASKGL
G. stearothermophilus glyceraldehyde-3-phosphate dehydrogenase (GsGap, gapDH WT), wild type, SEQ ID NO:6, sequence (P00362 whole entry): as the sequence (P00362 whole entry D34A/L35R/T36K) above, with A34D, R35L, K36T counted along it

With `NC(=O)c1ccc[n+]([C@@H]2O[C@H](COP(=O)([O-])OP(=O)(O)OC[C@H]3O[C@@H](n4cnc5c(N)ncnc54)[C@H](O)[C@@H]3O)[C@@H](O)[C@H]2O)c1` [NAD+, nicotinamide adenine dinucleotide], in test [1] (cofactor varied), the kcat is 0.2 ± 0.04 µM/min/mg. Besides, the Km amounted to 600 ± 400 µM in test [1] (cofactor) and 1500 ± 300 µM in test [2].

As a reminder, the Km is the substrate concentration at which the rate is half of its maximum.

The values above are taken from USRE50957E1, “Molecular rheostat for cofactor balance” (The Regents of the University of California, priority 2016, dated 2026).
